In US9643968B2, “Fused acridine derivative and pharmaceutical composition, preparation method and use thereof” (Peking University, priority 2014, dated 2017):

Tests used:
[1] = test system: HepG2 (human hepatocellular carcinoma); test: MTT in vitro cytotoxicity, HepG2; type: cell-based; settings: 72 hr incubation
Description: (§1) Materials and methods: MTT (3-[4,5-dimethylthiazol-2-yl]-diphenyl tetrazolium bromide) method was employed to determine the antiproliferative activity of all the compounds of the Examples and Contrasting Examples in vitro against selected cell lines, including HCT116 (human colon cancer cell), PC-3 (human prostate cancer), HepG2 (human hepatocellular carcinoma), SK-OV-3 (human ovarian adenocarcinoma), MCF-7 (human breast cancer), U87MG (human glioblastoma cell) cell lines.
(§2) Procedure: Human tumor cells of HCT116, PC-3, HepG2, SK-OV-3, MCF-7, and U87MG were in vitro cultured, and collected until the cells grow to the logarithmic phase. The cells were centrifuged for 5 minutes at 1000 rpm, and supernatant was discarded. Subsequently appropriate culture medium was added to suspend the precipitation, and the concentration of cells was adjusted to 3.5˜5.5×10^4/mL. the suspensions of cells were seeded in 96-well microplate at 100 μL per well, and incubated in incubator (37° C., 5% CO2) for 24 hr. The compound to test was added. For the control group, equivalent concentration of DMSO (final concentration 0.5%) was added. For each group, three copy wells were set. After incubated for 72 hr, 20 μL 5 mg/mL of MTT was added into each well, and placed at 37° C. for 3 hr. 150 μL of DMSO was added into each wells, and vibrated the shaker at 37° C. for 5 mins, then measured the absorbance (OD) value at 492 nm/620 nm. The IC50 values were calculated using Prism 5.0 software.

[2] = test system: PC-3 (human prostate cancer); test: MTT in vitro cytotoxicity, PC-3; type: cell-based; settings: 72 hr incubation, read-out: IC50 PC3
Description: as §1, §2

[3] = test system: HCT116 (human colon cancer cell); test: MTT in vitro cytotoxicity, HCT116; type: cell-based; settings: HCT-116, 72 hr incubation
Description: as §1, §2

[4] = test system: U87MG (human glioblastoma cell); test: MTT in vitro cytotoxicity, U87MG; type: cell-based; settings: U-87 MG, 72 hr incubation
Description: as §1, §2

[5] = test system: SK-OV-3 (human ovarian adenocarcinoma); test: MTT in vitro cytotoxicity, SK-OV-3; type: cell-based; settings: 72 hr incubation
Description: as §1, §2

[6] = test system: tumor cells (U87MG); test: Assay for inhibiting cancer cell clone formation (soft agar); type: cell-based, human; settings: concentration range from 0.020 to 0.090 μM, 10-14 days
Description: Materials and methods: The tested tumor cells (U87MG) in the logarithmic phase were digested with 0.25% trypsin then percussed gently to the single cell state, and counted the live cells. The cells density was adjusted to 1×10^6[…] with DMEM containing 20% fetal bovine serum, and then diluted gradiently according to the experiment requirement.
Two concentrations (1.2% and 0.7%) of low melting point agarose fluid were prepared with distilled water respectively. A mixture of 1.2% agarose fluid and 2×DMEM medium (contains 2× antibiotics and 20% calf serum) was prepared in 1:1 ratio, then transferred (3 mL) into 6 cm diameter flat dishes, cooled to solidification to furnish the bottom agar which was stored in a CO2 incubator. The cell suspension (0.2 mL) was added to a mixture of 0.7% agarose and 2×DMEM medium which was prepared in 1:1 ratio in sterile tubes, and thoroughly mixed before injection to the precoated dishes to form the double layer agar. After the upper agar being solidified, the dishes were incubated in 37° C. and 5% CO2 for 10-14 days, each experiment was performed in 3-6 times.
The number of clones was counted under an inverted microscope. The clone formation rate was calculated.

Row | Structure (SMILES) | IC50 [1] [nM] | IC50 [2] [nM] | IC50 [3] [nM] | IC50 [4] [nM] | IC50 [5] [nM] | inhibition of glioma cell clone formation [6]
1 | CN(C)CCCN1C(=O)c2c3cc(Cl)ccc3nc3cccc1c23 [Compound 3b, 9-chloro-2-(3-(dimethylamino)propyl)pyrrolo[2,3,4-kl]acridin-1-(2H)-one] | 1470 | 2330 | 1320 | 1580 | – | –
2 | Cc1ccc2nc3cccc4c3c(c2c1)C(=O)N4CCN1CCCCC1 [Compound 4a, 9-methyl-2-(2-(piperidin-1-yl)ethyl)pyrrolo[2,3,4-kl]acridin-1-(2H)-one] | 2570 | 4130 | 1420 | 1330 | – | –
3 | CN(C)CCN1C(=O)c2c3ccccc3nc3cccc1c23 [Compound 1a, 2-(2-(dimethylamino)ethyl)pyrrolo[2,3,4-kl]acridin-1-(2H)-one] | 6350 | 14500 | 7410 | 582 | 14800 | –
4 | CN(C)CCCN1C(=O)c2c3cccc(F)c3nc3cccc1c23 [Compound 3d, 2-(3-(dimethylamino)propyl)-7-fluoropyrrolo[2,3,4-kl]acridin-1-(2H)-one] | 2100 | 4990 | 1490 | 2360 | – | –
5 | Cc1ccc2nc3cccc4c3c(c2c1)C(=O)N4CCN(C)C [Compound 2a, 2-(2-(dimethylamino)ethyl)-9-methylpyrrolo[2,3,4-kl]acridin-1-(2H)-one] | 2820 | 3520 | 1050 | 2050 | – | –
6 | COc1ccc2nc3cccc4c3c(c2c1)C(=O)N4CCN1CCCCC1 [Compound 4c, 9-methoxy-2-(2-(piperidin-1-yl)ethyl)pyrrolo[2,3,4-kl]acridin-1-(2H)-one] | 1500 | 1400 | 284 | 497 | – | –
7 | O=C1c2c3ccccc3nc3cccc(c23)N1CCN1CCCCC1 [Compound 1f, 2-(2-(piperidin-1-yl)ethyl)pyrrolo[2,3,4-kl]acridin-1-(2H)-one] | 2270 | 3190 | 1130 | 3930 | 3650 | –
8 | Cc1ccc2c3c(c4cccc(F)c4nc13)C(=O)N2CCN(C)C [Compound 5d, 2-(2-(dimethylamino)ethyl)-7-fluoro-5-methylpyrrolo[2,3,4-kl]-acridin-1-(2H)-one] | 1720 | 2510 | 1000 | 1420 | – | significantly inhibited
9 | O=C1c2c3ccccc3nc3cccc(c23)N1CCCN1CCCC1 [Compound 1h, 2-(3-(pyrrolidin-1-yl)propyl)pyrrolo[2,3,4-kl]acridin-1-(2H)-one] | 8150 | 11900 | 1800 | 10200 | 11900 | –
10 | CN(C)CCN1C(=O)c2c3cc(Cl)ccc3nc3cccc1c23 [Compound 2b, 9-chloro-2-(2-(dimethylamino)ethyl)pyrrolo[2,3,4-kl]acridin-1-(2H)-one] | 1080 | 1220 | 859 | 1450 | – | significantly inhibited
11 | O=C1c2c3ccccc3nc3cccc(c23)N1CCN1CCCC1 [Compound 1g, 2-(2-(pyrrolidin-1-yl)ethyl)pyrrolo[2,3,4-kl]acridin-1-(2H)-one] | 2160 | 3990 | 946 | – | 6520 | –
12 | CN(C)CCCN1C(=O)c2c3cc(Cl)ccc3nc3cccc1c23.O=C(O)/C=C/C(=O)O [Compound 3b′, 9-chloro-2-(3-(dimethylamino)propyl)pyrrolo[2,3,4-kl]acridin-1-(2H)-one fumarate] | – | – | – | – | – | significantly inhibited
13 | O=C1c2c3cc(Cl)ccc3nc3cccc(c23)N1CCN1CCCCC1 [Compound 4b, 9-chloro-2-(2-(piperidin-1-yl)ethyl)pyrrolo[2,3,4-kl]acridin-1-(2H)-one] | 2250 | 2880 | 1380 | 1890 | – | –
14 | CN(C)CCN1C(=O)c2c3ccccc3nc3c([N+](=O)[O-])ccc1c23 [Compound 2e] | 1860 | 998 | 1340 | 1740 | – | –
15 | O=C1c2c3cccc(F)c3nc3cccc(c23)N1CCN1CCCCC1 [Compound 4d, 7-fluoro-2-(2-(piperidin-1-yl)ethyl)pyrrolo[2,3,4-kl]acridin-1-(2H)-one] | 3580 | 4700 | 1210 | 1780 | – | –
16 | Cc1ccc2nc3cccc4c3c(c2c1)C(=O)N4CCCN(C)C [Compound 3a, 2-(3-(dimethylamino)propyl)-9-methylpyrrolo[2,3,4-kl]acridin-1-(2H)-one] | 2850 | 8210 | 1380 | 2190 | – | –
17 | COc1ccc2nc3cccc4c3c(c2c1)C(=O)N4CCCN(C)C [Compound 3c, 2-(3-(dimethylamino)propyl)-9-methoxypyrrolo[2,3,4-kl]acridin-1-(2H)-one] | 1830 | 3470 | 1110 | 1850 | – | –
18 | CN(C)CCN1C(=O)c2c3cccc(F)c3nc3cccc1c23 [Compound 2d, 2-(2-(dimethylamino)ethyl)-7-fluoropyrrolo[2,3,4-kl]acridin-1-(2H)-one] | 1410 | 1850 | 951 | 1700 | – | significantly inhibited
19 | Cc1ccc2nc3c(C)ccc4c3c(c2c1)C(=O)N4CCN(C)C [Compound 5a, 2-(2-(dimethylamino)ethyl)-5,9-dimethylpyrrolo[2,3,4-kl]-acridin-1-(2H)-one] | 1940 | 2900 | 1060 | 1480 | – | significantly inhibited
20 | COc1ccc2nc3c(C)ccc4c3c(c2c1)C(=O)N4CCN(C)C [Compound 5c, 2-(2-(dimethylamino)ethyl)-9-methoxy-5-methylpyrrolo[2,3,4-kl]-acridin-1-(2H)-one] | 232 | 689 | 165 | 269 | – | –
21 | O=C1c2c3ccccc3nc3cccc(c23)N1c1ccccc1 [Compound 6b, 2-phenylpyrrolo[2,3,4-kl]acridin-1-(2H)-one, reference compound] | > 50000 | > 50000 | > 50000 | > 50000 | > 50000 | –
22 | CCCCN1C(=O)c2c3ccccc3nc3cccc1c23 [Compound 6a, 2-butylpyrrolo[2,3,4-kl]acridin-1-(2H)-one, reference compound] | > 50000 | > 50000 | > 50000 | > 50000 | > 50000 | –
23 | O=C1c2c3ccccc3nc3cccc(c23)N1CCCN1CCOCC1 [Compound 1b, 2-(3-morpholinopropyl)pyrrolo[2,3,4-kl]acridin-1-(2H)-one] | 2780 | 3010 | 1870 | 1780 | 8430 | –
24 | Cc1ccc2c3c(c4cc(Cl)ccc4nc13)C(=O)N2CCN(C)C [Compound 5b, 9-chloro-2-(2-(dimethylamino)ethyl)-5-methylpyrrolo[2,3,4-kl]-acridin-1-(2H)-one] | 1170 | 2240 | 930 | 1270 | – | significantly inhibited
25 | Cc1ccc2c3c(c4ccccc4nc13)C(=O)N2CCN(C)C [Compound 5e, 2-(2-(dimethylamino)ethyl)-5-methylpyrrolo[2,3,4-kl]-acridin-1-(2H)-one] | 1280 | 1660 | 767 | 959 | – | significantly inhibited
